Data taken from PubChem BioAssay AID608 (Sanford-Burnham Center for Chemical Genomics, 2007).
Active and inactive are the calls of the source. The rule behind the calls is not given here.

Each compound was assayed against Peptidyl-prolyl cis-trans isomerase FKBP1A (Homo sapiens) (UniProt P62942) (assay: FKBP12 binders, biophysical, NMR detection (AID 608)). Conditions: NMR binding, purified FKBP12.
Peptidyl-prolyl cis-trans isomerase FKBP1A (Homo sapiens), sequence (P62942 whole entry, looked up): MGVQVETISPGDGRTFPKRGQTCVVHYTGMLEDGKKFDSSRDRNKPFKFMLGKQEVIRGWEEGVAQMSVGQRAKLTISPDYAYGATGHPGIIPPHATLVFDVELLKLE
For `O=C(NCc1cccc(Cl)c1)c1cccnc1`, the Kd was > 4 mM (inactive). In the case of `CC1=C(C(N)=O)C(c2ccco2)C(C(N)=O)=C(C)N1`, the Kd is reported as > 4 mM (inactive). In the case of `Cc1cc(=O)n2[nH]c(COc3ccccc3)nc2n1`, the Kd is reported as > 4 mM (inactive). For `O=C1NC(=S)NC(=O)C1=Cc1ccncc1`, the Kd was > 4 mM (inactive). For `Cc1cc(C)n(S(=O)(=O)c2ccc(C)c(C)c2C)n1`, the Kd was > 4 mM (inactive). With `CSc1ccn(CCC(=O)O)c(=O)n1` the Kd was > 4 mM (inactive). For `Cc1cc(Oc2ccccc2)nc(N)n1`, the Kd was > 4 mM (inactive). With `NC(=O)c1ccsc1NC(=O)c1ccccc1[N+](=O)[O-]` the Kd was > 4 mM (inactive). `Cc1cccc(NC(=O)Nc2cc(C)on2)c1` was tested, and the Kd was > 4 mM (inactive). For `O=c1ccn([C@@H]2O[C@H](COP(=O)(O)OP(=O)(O)OP(=O)(O)O)[C@@H](O)[C@H]2O)c(=O)[nH]1`, the Kd was > 4 mM (inactive). `CN1CCN(CC(=O)NC2CCCCC2)CC1` was tested, and the Kd was > 4 mM (inactive). With `CCC(=O)Nc1cc(C(C)C)c(O)cc1C` the Kd was > 4 mM (inactive). `O=C(c1sc2cccc(F)c2c1Cl)N1CCOCC1` was tested, and the Kd was “inactive”. In the case of `CC(=O)c1c(C)nc(-c2cccs2)n1O`, the Kd is reported as > 4 mM (inactive). With `CCCn1c(C)cc(=O)[nH]c1=O` the Kd was > 4 mM (inactive). With `O=C(CC1NCCNC1=O)Nc1ccccc1` (centres undefined) the Kd was > 4 mM (inactive). With `COc1ccc([C@@H](C)C(=O)c2ccc(O)cc2O)cc1` the Kd was > 4 mM (inactive). For `S=c1[nH]c2cccnc2[nH]1`, the Kd was > 4 mM (inactive). In the case of `O=C(O[C@@H]1Cc2c(O)cc(O)cc2O[C@@H]1c1cc(=O)c(O)c2c(O)c(O)cc([C@H]3Oc4cc(O)cc(O)c4C[C@H]3O)c2c1)c1cc(O)c(O)c(O)c1`, the Kd is reported as > 4 mM (inactive). With `Nc1ccc(-c2cnco2)cc1` the Kd was > 4 mM (inactive). For `NC12CC3CC(C1)CC(O)(C3)C2`, the Kd was > 4 mM (inactive). In the case of `CC(=O)O[C@@H]1C=C[C@@]2(C)C(C[C@@H](OC(C)=O)[C@@]3(C)C4=CC(=O)O[C@@H](c5ccoc5)[C@]4(C)CCC23)C1(C)C` (some centres undefined), the Kd is reported as > 4 mM (inactive). In the case of `O=C1Nc2ccccc2C1C1(O)C(=O)Nc2ccc(F)cc21` (centres undefined), the Kd is reported as > 4 mM (inactive). For `Nc1ncnc(NC2CCS(=O)(=O)C2)c1[N+](=O)[O-]` (centres undefined), the Kd was > 4 mM (inactive). With `Cc1ccc(-n2nnnc2SCC(N)=O)c(C)c1` the Kd was > 4 mM (inactive). `COc1ccc([C@H]2COc3c(ccc(O)c3OC)C2)c(OC)c1O` was tested, and the Kd was > 4 mM (inactive). `C=C1CCC(C2CC(=O)OC2=O)C(=O)CCC2C1CC2(C)C` (centres undefined) was tested, and the Kd was > 4 mM (inactive). In the case of `NC(=O)Cc1nc2ccccc2[nH]1`, the Kd is reported as > 4 mM (inactive). With `CCOC(=O)c1c[nH]c2c(F)cccc2c1=O` the Kd was > 4 mM (inactive). In the case of `O=c1cc(-c2ccccc2)oc2cc(O)c(O)c(O)c12`, the Kd is reported as > 4 mM (inactive). In the case of `Nc1nnc(SCc2ccc(F)cc2)s1`, the Kd is reported as > 4 mM (inactive). For `Cc1ccc(-c2nn(C)c(=O)c3ccccc23)cc1CO`, the Kd was > 4 mM (inactive). `N[C@@H](Cc1ccc(O)c(O)c1)C(=O)O` was tested, and the Kd was > 4 mM (inactive). For `Cc1cn2c(-c3cccnc3)nnc2s1`, the Kd was > 4 mM (inactive). In the case of `Cn1cccc1C=C1C(=O)NC(=S)NC1=O`, the Kd is reported as > 4 mM (inactive). In the case of `NC(=O)c1ccc(Cl)c(N2C(=O)CCC2=O)c1`, the Kd is reported as > 4 mM (inactive). `CNc1nnc(CSc2nc(C)cc(C)n2)s1` was tested, and the Kd was > 4 mM (inactive). `CSc1ccccc1NC(=O)c1cccnc1` was tested, and the Kd was > 4 mM (inactive). For `O=c1cc(O)n(-c2ccc(F)cc2)c(=S)[nH]1`, the Kd was > 4 mM (inactive). For `CC(=O)Cc1nsc(NC(=O)c2ccc(C)cc2)n1`, the Kd was > 4 mM (inactive). `O=C(CCc1ccc(O)cc1)c1c(O)cc(O)cc1O` was tested, and the Kd was > 4 mM (inactive). `CC(C)[C@@H]1CC[C@@H](C)C[C@H]1O` was tested, and the Kd was > 4 mM (inactive). With `Cc1ccccc1OCC(=O)O` the Kd was > 4 mM (inactive). With `CC(C)[C@@H]1CC[C@@H](C)C[C@H]1OC(=O)c1ccccc1` the Kd was > 4 mM (inactive). For `O[C@H]1C=C2CCN3Cc4cc5c(cc4C(C23)[C@@H]1O)OCO5` (some centres undefined), the Kd was > 4 mM (inactive). In the case of `O=c1ccc(=O)n(CN2CCc3ccccc3C2)[nH]1`, the Kd is reported as > 4 mM (inactive). With `Fc1ccc2onc(C3CCNCC3)c2c1` the Kd was > 4 mM (inactive). For `NS(=O)(=O)c1ccc(NC(=O)c2ccccc2F)cc1`, the Kd was > 4 mM (inactive). In the case of `O=C(O)c1ccc2sccc2c1`, the Kd is reported as > 4 mM (inactive). `Cc1ccccc1C(=O)Nc1cccc(N)c1` was tested, and the Kd was > 4 mM (inactive). In the case of `COc1cc(C(=O)NCC2CCCO2)cc(OC)c1OC` (centres undefined), the Kd is reported as > 4 mM (inactive). With `COC(=O)c1noc(C)c1C(C)=O` the Kd was > 4 mM (inactive). In the case of `CC(=O)NC12CC3CC(C)(C1)CC(NC(C)=O)(C3)C2`, the Kd is reported as > 4 mM (inactive). In the case of `CN1CCC(N(C)C2CCN(C)CC2)CC1`, the Kd is reported as > 4 mM (inactive).
